Results from BindingDB's records for doi:10.1016/j.bmcl.2011.06.024 (Merck Research Laboratories, 2011).
Each block holds one compound with its values, some of them ahead of it.

What was measured:
[1] = Antagonist activity at smoothened expressed in mouse Shh Light2 cells co-expressing Gli-dependent reporter gene assessed as inhibition of Hh pathway
Smoothened homolog [2] = target: T1, Smoothened homolog (Homo sapiens, UniProt Q99835); assay: Displacement of [125I]-PA cyclopamine from smoothened expressed in african green monkey COS-1 cells after 10 mins by autoradiography
T1 sequence (Q99835 whole entry): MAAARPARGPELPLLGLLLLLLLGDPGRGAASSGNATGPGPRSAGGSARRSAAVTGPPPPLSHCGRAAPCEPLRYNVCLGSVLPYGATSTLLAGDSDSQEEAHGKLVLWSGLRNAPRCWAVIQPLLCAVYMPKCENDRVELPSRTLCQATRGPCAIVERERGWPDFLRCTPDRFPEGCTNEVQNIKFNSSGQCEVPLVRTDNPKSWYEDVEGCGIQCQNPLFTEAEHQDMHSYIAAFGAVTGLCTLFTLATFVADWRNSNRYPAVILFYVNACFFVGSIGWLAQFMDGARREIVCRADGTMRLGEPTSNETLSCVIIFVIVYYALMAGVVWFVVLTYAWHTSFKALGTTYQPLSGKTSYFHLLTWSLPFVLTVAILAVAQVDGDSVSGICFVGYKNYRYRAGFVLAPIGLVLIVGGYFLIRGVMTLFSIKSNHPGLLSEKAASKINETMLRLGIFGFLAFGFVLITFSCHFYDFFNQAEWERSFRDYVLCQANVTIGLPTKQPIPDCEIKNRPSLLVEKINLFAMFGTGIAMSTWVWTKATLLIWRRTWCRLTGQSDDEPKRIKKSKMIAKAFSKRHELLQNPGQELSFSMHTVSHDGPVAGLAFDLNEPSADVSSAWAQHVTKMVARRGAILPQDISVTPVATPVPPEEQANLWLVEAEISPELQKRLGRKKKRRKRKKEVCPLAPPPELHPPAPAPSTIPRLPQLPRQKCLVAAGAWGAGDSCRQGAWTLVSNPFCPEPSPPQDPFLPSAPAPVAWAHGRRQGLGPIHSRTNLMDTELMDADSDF

Smoothened homolog [3] = target: T1, Smoothened homolog; assay: Antagonist activity at smoothened expressed in mouse Shh Light2 cells co-expressing Gli-dependent reporter gene assessed as inhibition of Hh pathway

IC50 [1]: 28 nM
Structure (SMILES): O=C(Nc1cccnc1-c1ccccc1)N1CCn2c(c(O)n([C@H]3C[C@@H]3c3ccccc3)c2=O)C1

IC50 [1]: 82 nM
Structure (SMILES): COc1cccc(-c2ncccc2NC(=O)N2CCn3c(c(O)n([C@H]4C[C@@H]4c4ccccc4)c3=O)C2)c1

IC50 [1]: 16 nM
Structure (SMILES): O=C(Nc1ccnn1-c1ccccc1)N1CCn2c(c(O)n([C@H]3C[C@@H]3c3ccccc3)c2=O)C1

IC50 [1]: 4600 nM
Structure (SMILES): O=C(Nc1ccccc1-c1ccccc1)c1ccc2c(c1)C(=O)N([C@H]1C[C@@H]1c1ccccc1)C2=O

IC50 [1]: 600 nM
Structure (SMILES): O=C(NC1CCCCC1)N1CCn2c(c(O)n([C@H]3C[C@@H]3c3ccccc3)c2=O)C1

IC50 [1]: 1500 nM
Structure (SMILES): CCCCCCNC(=O)N1CCn2c(c(O)n([C@H]3C[C@@H]3c3ccccc3)c2=O)C1

IC50 [1]: 1900 nM
Structure (SMILES): CCCCN(CCCC)C(=O)N1CCn2c(c(O)n([C@H]3C[C@@H]3c3ccccc3)c2=O)C1

IC50 [1]: 780 nM
Structure (SMILES): O=C(Nc1cc(Cl)cc(Cl)c1)N1CCn2c(c(O)n([C@H]3C[C@@H]3c3ccccc3)c2=O)C1

IC50 [1]: 2700 nM
Structure (SMILES): O=C(Nc1ccc2c(c1)OCO2)N1CCn2c(c(O)n([C@H]3C[C@@H]3c3ccccc3)c2=O)C1

IC50 [1]: 1600 nM
Structure (SMILES): CN(C(=O)N1CCn2c(c(O)n([C@H]3C[C@@H]3c3ccccc3)c2=O)C1)c1ccccc1-c1ccccc1

IC50 [1]: 5000 nM
Structure (SMILES): O=C(Nc1ccccc1-c1ccccc1)N1CCn2c(c(O)n(CCc3ccccc3)c2=O)C1

IC50 (Smoothened homolog [2]): > 2500 nM
IC50 (Smoothened homolog [3]): > 2500 nM
Structure (SMILES): O=C(Nc1ccccc1-c1ccccc1)N1CCn2c(c(O)n(C3CC34CCCCC4)c2=O)C1 (stereo not given)

IC50 [1]: 2200 nM
Structure (SMILES): COC(=O)c1cccc(NC(=O)N2CCn3c(c(O)n([C@H]4C[C@@H]4c4ccccc4)c3=O)C2)c1Cl

IC50 [1]: 150 nM
Structure (SMILES): Cc1cc(C#N)cc(Cl)c1NC(=O)N1CCn2c(c(O)n([C@H]3C[C@@H]3c3ccccc3)c2=O)C1

IC50 (Smoothened homolog [2]): > 1500 nM
Structure (SMILES): CC(=O)N1CCn2c(c(O)n([C@H]3C[C@@H]3c3ccccc3)c2=O)C1

IC50 (Smoothened homolog [2]): > 2500 nM
Structure (SMILES): O=C(Nc1ccccc1-c1ccccc1)N1CCn2c(c(O)n(Cc3ccccc3)c2=O)C1

IC50 (Smoothened homolog [2]): > 2500 nM
Structure (SMILES): O=C(Nc1ccccc1-c1ccccc1)N1CCn2c(c(O)n(-c3cccc4ccccc34)c2=O)C1

More lines, now with the values behind:

Structure (SMILES): O=C(Nc1ccncc1-c1ccccc1)N1CCn2c(c(O)n([C@H]3C[C@@H]3c3ccccc3)c2=O)C1
IC50 [1]: 89 nM

Structure (SMILES): O=C(Nc1cccnc1-c1cccc(Cl)c1)N1CCn2c(c(O)n([C@H]3C[C@@H]3c3ccccc3)c2=O)C1
IC50 [1]: 18 nM

Structure (SMILES): O=C(Nc1cccnc1-c1ccsc1)N1CCn2c(c(O)n([C@H]3C[C@@H]3c3ccccc3)c2=O)C1
IC50 [1]: 240 nM

Structure (SMILES): Cn1cc(-c2ncccc2NC(=O)N2CCn3c(c(O)n([C@H]4C[C@@H]4c4ccccc4)c3=O)C2)cn1
IC50 [1]: 1200 nM

Structure (SMILES): O=C(Nc1ccccc1-c1ccccc1)N1CCN2C(=O)N([C@H]3C[C@@H]3c3ccccc3)CC2C1 (stereo not given in full)
IC50 [1]: 3000 nM

Structure (SMILES): CC(C)(C)C(=O)N1CCn2c(c(O)n([C@H]3C[C@@H]3c3ccccc3)c2=O)C1
IC50 [1]: 4500 nM

Structure (SMILES): O=C(Nc1cccc(Cl)c1Cl)N1CCn2c(c(O)n([C@H]3C[C@@H]3c3ccccc3)c2=O)C1
IC50 [1]: 340 nM

Structure (SMILES): O=C(Nc1ccccc1-c1ccccc1)N1CCn2c(c(O)n(-c3cccc(-c4ccccc4)c3)c2=O)C1
IC50 (Smoothened homolog [2]): > 2500 nM
IC50 [1]: 2500 nM

Structure (SMILES): O=C(Nc1ccccc1-c1ccccc1)N1CCn2c(c(O)n(C3Cc4ccccc4C3)c2=O)C1
IC50 [1]: 320 nM

Structure (SMILES): Cc1c(Cl)cccc1NC(=O)N1CCn2c(c(O)n([C@H]3C[C@@H]3c3ccccc3)c2=O)C1
IC50 [1]: 370 nM

Structure (SMILES): Cc1cccc(Cl)c1NC(=O)N1CCn2c(c(O)n([C@H]3C[C@@H]3c3ccccc3)c2=O)C1
IC50 [1]: 530 nM

Structure (SMILES): O=C(Nc1ccc(F)c(Cl)c1Cl)N1CCn2c(c(O)n([C@H]3C[C@@H]3c3ccccc3)c2=O)C1
IC50 [1]: 510 nM

Structure (SMILES): O=C(Nc1c(Cl)cc(C(F)(F)F)cc1Cl)N1CCn2c(c(O)n([C@H]3C[C@@H]3c3ccccc3)c2=O)C1
IC50 [1]: 330 nM

Structure (SMILES): CS(=O)(=O)c1cc(Cl)c(NC(=O)N2CCn3c(c(O)n([C@H]4C[C@@H]4c4ccccc4)c3=O)C2)c(Cl)c1
IC50 [1]: 53 nM

Structure (SMILES): CC(C)c1ccccc1NC(=O)N1CCn2c(c(O)n([C@H]3C[C@@H]3c3ccccc3)c2=O)C1
IC50 [1]: 180 nM

Structure (SMILES): COC(=O)N1CCn2c(c(O)n([C@H]3C[C@@H]3c3ccccc3)c2=O)C1
IC50 (Smoothened homolog [2]): > 1500 nM

Structure (SMILES): O=C(C1CCCCC1)N1CCn2c(c(O)n([C@H]3C[C@@H]3c3ccccc3)c2=O)C1
IC50 (Smoothened homolog [2]): > 1500 nM

Structure (SMILES): O=c1n2c(c(O)n1[C@H]1C[C@@H]1c1ccccc1)CN(CC1CCCCC1)CC2
IC50 (Smoothened homolog [2]): > 2500 nM

Structure (SMILES): O=C(NCc1ccco1)N1CCn2c(c(O)n([C@H]3C[C@@H]3c3ccccc3)c2=O)C1
IC50 (Smoothened homolog [2]): > 2500 nM

Structure (SMILES): CCCCn1c(O)c2n(c1=O)CCN(C(=O)Nc1ccccc1-c1ccccc1)C2
IC50 (Smoothened homolog [2]): > 2500 nM

Structure (SMILES): CN(C)C(=O)N1CCn2c(c(O)n([C@H]3C[C@@H]3c3ccccc3)c2=O)C1
IC50 (Smoothened homolog [2]): > 2500 nM
